Laboratory results reported in ChEMBL document CHEMBL4507319 (2021).
pIC50: −log10 of the molar value.

Columns and labels:
[1] = target: Serine/threonine-protein kinase SIK2 (Homo sapiens) (UniProt Q9H0K1); assay: SIK2(h) Eurofins kinase panel; settings: Compound concentration 1.0 uM
[2] = target: Casein kinase I isoform gamma-1 (Homo sapiens) (UniProt Q9HCP0); assay: CK1gamma1(h) Eurofins kinase panel; settings: Compound concentration 1.0 uM
[3] = target: Ephrin type-A receptor 2 (Homo sapiens) (UniProt P29317); assay: EphA2(h) Eurofins kinase panel; settings: Compound concentration 1.0 uM
[4] = target: Cyclin-dependent kinase 2/cyclin E (Homo sapiens) (UniProt P24864+P24941+O96020); assay: CDK2/cyclinE(h) Eurofins kinase panel; format: protein-complex assay; settings: Compound concentration 1.0 uM
[5] = target: T1, Ephrin type-A receptor 8 (Homo sapiens) (UniProt P29322); assay: EphA8(h) Eurofins kinase panel; settings: Compound concentration 1.0 uM
T1 sequence (whole entry): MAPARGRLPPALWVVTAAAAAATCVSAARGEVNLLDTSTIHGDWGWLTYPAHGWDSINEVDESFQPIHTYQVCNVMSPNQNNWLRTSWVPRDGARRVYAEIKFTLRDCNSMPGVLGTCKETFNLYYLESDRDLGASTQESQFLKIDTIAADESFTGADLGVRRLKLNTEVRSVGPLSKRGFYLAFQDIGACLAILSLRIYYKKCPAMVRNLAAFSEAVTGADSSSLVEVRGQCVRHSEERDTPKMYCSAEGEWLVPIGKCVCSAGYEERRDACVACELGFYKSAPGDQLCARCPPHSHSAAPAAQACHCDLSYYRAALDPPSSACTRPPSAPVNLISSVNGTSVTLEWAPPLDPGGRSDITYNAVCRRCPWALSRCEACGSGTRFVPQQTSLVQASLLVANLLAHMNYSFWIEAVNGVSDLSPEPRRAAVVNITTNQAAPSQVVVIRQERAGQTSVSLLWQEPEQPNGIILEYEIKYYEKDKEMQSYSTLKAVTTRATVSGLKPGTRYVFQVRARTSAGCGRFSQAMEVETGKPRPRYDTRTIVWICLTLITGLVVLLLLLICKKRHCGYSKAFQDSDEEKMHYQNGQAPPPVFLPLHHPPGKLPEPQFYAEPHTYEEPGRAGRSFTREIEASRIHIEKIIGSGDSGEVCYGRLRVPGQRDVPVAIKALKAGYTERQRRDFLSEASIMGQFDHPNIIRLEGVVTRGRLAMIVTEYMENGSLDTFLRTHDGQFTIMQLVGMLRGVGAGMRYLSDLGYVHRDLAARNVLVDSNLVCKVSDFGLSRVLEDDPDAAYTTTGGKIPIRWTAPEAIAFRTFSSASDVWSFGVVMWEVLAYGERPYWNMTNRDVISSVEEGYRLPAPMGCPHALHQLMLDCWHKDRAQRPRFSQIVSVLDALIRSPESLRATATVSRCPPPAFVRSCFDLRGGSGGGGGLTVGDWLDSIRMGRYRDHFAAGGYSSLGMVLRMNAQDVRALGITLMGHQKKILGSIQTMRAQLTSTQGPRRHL

[6] = target: Serine/threonine-protein kinase N2 (Homo sapiens) (UniProt Q16513); assay: PRK2(h) Eurofins kinase panel; settings: Compound concentration 1.0 uM
[7] = target: Protein kinase C eta type (Homo sapiens) (UniProt P24723); assay: PKCeta (h) Eurofins kinase panel; settings: Compound concentration 1.0 uM
[8] = target: Dual specificity mitogen-activated protein kinase kinase 2 (Homo sapiens) (UniProt P36507); assay: MEK2(h) Eurofins kinase panel; settings: Compound concentration 1.0 uM
JJN-3 = assay: JJN3 cell line Proliferation assay; format: functional, Homo sapiens; settings: time 3 day
[9] = target: Dual specificity protein kinase CLK2 (Homo sapiens) (UniProt P49760); assay: CLK2(h) Eurofins kinase panel; settings: Compound concentration 1.0 uM
[10] = target: Ribosomal protein S6 kinase alpha-1 (Homo sapiens, UniProt Q15418)
[11] = target: T2, cAMP-dependent protein kinase catalytic subunit PRKX (Homo sapiens) (UniProt P51817); assay: PrKX(h) Eurofins kinase panel; settings: Compound concentration 1.0 uM
T2 sequence (whole entry): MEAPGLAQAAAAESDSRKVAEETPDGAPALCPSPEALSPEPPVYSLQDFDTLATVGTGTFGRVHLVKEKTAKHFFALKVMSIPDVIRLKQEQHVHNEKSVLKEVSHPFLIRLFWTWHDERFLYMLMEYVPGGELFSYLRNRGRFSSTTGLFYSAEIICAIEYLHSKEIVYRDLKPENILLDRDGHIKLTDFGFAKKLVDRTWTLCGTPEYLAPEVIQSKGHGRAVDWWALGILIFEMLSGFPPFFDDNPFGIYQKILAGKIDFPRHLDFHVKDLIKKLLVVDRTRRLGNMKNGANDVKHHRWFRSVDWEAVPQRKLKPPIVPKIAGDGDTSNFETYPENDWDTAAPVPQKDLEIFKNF

[12] = target: T3, Tyrosine-protein kinase Mer (Homo sapiens) (UniProt Q12866); assay: Mer(h) Eurofins kinase panel; settings: Compound concentration 1.0 uM
T3 sequence (whole entry): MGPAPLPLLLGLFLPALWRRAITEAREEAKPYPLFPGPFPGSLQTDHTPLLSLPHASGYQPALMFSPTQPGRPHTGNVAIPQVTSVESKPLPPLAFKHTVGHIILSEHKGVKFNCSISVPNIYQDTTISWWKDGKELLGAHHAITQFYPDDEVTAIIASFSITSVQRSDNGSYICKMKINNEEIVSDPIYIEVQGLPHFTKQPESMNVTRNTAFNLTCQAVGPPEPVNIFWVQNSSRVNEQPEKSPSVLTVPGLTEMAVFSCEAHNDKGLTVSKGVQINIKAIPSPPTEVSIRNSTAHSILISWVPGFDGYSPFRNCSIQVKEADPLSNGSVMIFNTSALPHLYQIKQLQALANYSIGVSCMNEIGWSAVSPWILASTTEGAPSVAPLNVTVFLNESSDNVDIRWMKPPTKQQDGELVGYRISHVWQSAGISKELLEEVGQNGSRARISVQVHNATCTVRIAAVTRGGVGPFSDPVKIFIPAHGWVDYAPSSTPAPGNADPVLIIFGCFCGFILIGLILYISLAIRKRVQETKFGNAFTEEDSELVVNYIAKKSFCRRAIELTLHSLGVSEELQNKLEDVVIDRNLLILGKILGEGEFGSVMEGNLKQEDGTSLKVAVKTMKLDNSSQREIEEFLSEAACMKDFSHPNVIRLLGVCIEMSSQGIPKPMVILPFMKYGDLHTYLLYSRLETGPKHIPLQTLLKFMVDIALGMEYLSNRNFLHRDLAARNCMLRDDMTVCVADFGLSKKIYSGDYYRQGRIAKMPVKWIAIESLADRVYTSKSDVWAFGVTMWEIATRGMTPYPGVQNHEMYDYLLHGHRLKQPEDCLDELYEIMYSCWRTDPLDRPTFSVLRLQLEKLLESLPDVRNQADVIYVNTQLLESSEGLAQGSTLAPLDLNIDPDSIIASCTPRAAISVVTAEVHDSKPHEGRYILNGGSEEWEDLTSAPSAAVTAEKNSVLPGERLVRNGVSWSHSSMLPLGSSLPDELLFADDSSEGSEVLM

[13] = target: Testis-specific serine/threonine-protein kinase 2 (Homo sapiens) (UniProt Q96PF2); assay: TSSK2(h) Eurofins kinase panel; settings: Compound concentration 1.0 uM
Sequence of Testis-specific serine/threonine-protein kinase 2 (Homo sapiens) (Q96PF2 whole entry): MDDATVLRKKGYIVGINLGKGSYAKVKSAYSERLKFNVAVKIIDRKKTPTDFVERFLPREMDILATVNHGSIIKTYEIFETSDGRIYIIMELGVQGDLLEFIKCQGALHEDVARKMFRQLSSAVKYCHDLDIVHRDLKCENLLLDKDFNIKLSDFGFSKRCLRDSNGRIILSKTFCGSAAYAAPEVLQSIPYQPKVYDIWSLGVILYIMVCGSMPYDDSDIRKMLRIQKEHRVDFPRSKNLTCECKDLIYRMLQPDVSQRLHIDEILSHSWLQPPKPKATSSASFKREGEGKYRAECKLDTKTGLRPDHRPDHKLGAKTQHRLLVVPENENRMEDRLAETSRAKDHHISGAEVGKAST

Sequence of Dual specificity protein kinase CLK2 (Homo sapiens) (P49760 whole entry, looked up): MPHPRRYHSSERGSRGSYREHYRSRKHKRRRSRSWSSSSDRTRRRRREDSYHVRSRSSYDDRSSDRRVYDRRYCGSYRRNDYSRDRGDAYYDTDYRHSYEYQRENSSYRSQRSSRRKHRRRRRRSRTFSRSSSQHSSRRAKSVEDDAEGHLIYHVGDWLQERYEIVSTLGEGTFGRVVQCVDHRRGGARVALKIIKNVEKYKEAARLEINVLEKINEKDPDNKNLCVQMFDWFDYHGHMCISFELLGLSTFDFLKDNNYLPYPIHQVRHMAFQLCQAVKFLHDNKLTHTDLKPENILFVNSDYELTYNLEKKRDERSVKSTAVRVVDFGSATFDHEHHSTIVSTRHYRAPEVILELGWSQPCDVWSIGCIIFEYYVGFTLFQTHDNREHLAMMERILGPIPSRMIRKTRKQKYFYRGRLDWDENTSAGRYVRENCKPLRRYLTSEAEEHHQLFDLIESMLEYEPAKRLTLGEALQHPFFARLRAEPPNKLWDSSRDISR
Sequence of Serine/threonine-protein kinase SIK2 (Homo sapiens) (Q9H0K1 whole entry, looked up, canonical isoform): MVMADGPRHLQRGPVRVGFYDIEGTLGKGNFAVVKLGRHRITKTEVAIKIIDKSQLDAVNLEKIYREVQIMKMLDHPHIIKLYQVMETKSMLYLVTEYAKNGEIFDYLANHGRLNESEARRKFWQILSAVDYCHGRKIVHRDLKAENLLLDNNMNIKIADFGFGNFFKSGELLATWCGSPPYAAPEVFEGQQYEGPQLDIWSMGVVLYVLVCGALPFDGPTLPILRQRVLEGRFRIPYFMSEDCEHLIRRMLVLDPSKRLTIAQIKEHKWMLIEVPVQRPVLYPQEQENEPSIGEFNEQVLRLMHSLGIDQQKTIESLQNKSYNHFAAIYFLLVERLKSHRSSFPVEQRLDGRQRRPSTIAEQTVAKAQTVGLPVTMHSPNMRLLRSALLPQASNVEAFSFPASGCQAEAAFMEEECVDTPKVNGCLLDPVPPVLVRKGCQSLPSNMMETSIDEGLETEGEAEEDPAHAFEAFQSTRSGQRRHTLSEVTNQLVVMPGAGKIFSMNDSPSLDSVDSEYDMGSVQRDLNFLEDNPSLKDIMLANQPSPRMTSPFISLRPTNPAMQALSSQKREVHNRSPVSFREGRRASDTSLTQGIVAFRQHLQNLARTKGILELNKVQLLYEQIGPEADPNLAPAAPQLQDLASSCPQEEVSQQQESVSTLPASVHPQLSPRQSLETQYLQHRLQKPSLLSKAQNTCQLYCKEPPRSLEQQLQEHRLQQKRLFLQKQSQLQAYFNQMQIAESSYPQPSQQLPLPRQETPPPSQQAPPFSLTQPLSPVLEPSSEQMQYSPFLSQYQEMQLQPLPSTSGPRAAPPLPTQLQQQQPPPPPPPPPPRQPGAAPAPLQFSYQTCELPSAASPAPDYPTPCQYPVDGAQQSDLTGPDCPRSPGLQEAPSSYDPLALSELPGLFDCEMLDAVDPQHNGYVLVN
Sequence of Serine/threonine-protein kinase N2 (Homo sapiens) (Q16513 whole entry, looked up): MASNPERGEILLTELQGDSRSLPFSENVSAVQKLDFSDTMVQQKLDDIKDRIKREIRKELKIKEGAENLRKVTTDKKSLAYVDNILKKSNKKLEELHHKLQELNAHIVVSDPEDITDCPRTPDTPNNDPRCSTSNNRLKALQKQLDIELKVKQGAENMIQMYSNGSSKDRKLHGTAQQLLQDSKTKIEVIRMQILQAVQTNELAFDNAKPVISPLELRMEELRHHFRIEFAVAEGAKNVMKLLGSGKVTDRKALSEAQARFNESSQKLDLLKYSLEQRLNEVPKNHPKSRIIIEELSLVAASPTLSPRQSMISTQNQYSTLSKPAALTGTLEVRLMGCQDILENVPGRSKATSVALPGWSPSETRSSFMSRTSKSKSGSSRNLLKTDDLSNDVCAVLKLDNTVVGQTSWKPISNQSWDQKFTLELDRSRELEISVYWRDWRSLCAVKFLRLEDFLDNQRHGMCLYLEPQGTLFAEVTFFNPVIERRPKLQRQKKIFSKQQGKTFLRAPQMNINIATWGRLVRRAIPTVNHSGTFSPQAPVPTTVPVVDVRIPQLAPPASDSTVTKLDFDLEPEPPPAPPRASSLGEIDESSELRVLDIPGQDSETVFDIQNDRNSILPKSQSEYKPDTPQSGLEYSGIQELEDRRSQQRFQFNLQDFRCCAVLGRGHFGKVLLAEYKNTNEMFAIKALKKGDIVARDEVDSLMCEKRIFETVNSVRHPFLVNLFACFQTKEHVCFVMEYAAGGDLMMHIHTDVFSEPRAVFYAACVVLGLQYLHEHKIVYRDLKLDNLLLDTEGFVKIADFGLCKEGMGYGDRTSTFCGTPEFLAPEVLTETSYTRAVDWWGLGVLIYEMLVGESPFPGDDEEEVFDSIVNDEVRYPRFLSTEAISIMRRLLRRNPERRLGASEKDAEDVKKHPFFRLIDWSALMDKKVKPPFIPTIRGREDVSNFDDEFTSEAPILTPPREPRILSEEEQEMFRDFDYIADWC
Sequence of Ephrin type-A receptor 2 (Homo sapiens) (P29317 whole entry): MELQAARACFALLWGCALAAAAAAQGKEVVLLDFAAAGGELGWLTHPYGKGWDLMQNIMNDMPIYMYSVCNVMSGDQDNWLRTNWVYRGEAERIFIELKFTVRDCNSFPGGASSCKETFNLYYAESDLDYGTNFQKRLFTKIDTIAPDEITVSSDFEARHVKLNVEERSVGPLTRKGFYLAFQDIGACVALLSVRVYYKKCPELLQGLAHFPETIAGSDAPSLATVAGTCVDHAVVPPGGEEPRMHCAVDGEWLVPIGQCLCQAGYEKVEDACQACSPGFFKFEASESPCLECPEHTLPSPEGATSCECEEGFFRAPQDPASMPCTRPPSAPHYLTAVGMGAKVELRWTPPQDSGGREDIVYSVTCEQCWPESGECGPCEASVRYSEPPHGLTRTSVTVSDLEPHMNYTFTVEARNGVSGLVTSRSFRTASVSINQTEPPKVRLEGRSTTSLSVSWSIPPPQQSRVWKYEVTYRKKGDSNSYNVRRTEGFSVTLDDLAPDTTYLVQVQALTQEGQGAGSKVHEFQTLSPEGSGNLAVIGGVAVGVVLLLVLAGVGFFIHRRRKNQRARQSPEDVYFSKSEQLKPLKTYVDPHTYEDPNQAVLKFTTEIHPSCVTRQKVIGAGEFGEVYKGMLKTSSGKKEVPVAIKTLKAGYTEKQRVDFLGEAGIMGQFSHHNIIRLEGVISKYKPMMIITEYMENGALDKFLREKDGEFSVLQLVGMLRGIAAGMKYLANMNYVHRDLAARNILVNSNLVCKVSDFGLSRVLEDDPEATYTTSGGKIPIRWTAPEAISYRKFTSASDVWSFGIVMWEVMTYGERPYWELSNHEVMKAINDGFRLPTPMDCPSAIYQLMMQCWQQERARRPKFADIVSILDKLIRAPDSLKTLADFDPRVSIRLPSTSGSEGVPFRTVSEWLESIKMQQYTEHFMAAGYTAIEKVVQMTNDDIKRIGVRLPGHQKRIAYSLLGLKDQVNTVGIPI
Sequence of Dual specificity mitogen-activated protein kinase kinase 2 (Homo sapiens) (P36507 whole entry): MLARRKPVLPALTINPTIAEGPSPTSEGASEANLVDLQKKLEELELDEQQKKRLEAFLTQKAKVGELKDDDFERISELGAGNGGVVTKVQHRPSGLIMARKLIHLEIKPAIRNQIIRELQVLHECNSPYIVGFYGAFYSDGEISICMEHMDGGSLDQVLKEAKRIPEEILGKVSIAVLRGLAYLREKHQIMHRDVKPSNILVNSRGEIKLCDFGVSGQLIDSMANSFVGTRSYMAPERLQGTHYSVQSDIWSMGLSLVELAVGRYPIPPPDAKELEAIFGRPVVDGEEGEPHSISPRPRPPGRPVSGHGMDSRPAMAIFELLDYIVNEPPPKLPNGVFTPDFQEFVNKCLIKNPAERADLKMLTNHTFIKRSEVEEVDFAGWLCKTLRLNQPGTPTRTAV
Sequence of Protein kinase C eta type (Homo sapiens) (P24723 whole entry): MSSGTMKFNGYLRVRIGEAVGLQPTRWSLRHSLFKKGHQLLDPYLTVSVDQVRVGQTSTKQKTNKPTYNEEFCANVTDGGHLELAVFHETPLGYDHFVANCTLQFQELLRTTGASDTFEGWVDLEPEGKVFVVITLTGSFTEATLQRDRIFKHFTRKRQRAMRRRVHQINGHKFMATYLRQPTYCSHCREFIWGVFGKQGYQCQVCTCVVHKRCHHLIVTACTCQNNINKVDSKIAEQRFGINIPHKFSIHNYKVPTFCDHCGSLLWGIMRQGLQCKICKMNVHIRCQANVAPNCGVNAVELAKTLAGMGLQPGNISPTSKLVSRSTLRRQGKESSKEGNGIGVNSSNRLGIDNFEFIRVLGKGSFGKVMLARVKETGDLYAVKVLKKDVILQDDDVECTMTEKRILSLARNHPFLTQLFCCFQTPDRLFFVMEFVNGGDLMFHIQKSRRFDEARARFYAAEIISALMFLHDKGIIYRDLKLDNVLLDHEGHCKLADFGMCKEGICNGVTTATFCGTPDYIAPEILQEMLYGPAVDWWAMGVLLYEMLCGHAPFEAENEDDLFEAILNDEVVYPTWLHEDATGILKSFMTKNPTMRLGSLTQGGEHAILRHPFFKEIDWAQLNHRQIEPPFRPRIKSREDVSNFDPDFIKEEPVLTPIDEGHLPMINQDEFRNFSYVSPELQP

CCc1ccccc1C(=O)Nc1n[nH]c2c(C)c(F)c(C3C(C#N)=C(C)N(C)C(C)=C3C#N)cc12 [BAY-3827]
% residual kinase activity [1]: 68%
% residual kinase activity [2]: 101%
% residual kinase activity [3]: 88%
% residual kinase activity [4]: 92%
% residual kinase activity [5]: 102%
% residual kinase activity [6]: 93%
% residual kinase activity [7]: 92%
% residual kinase activity [8]: 112%
Cell Proliferation IC50 (JJN-3): >20000 nM
% residual kinase activity [9]: 93%
pIC50 [10]: 8.05
% residual kinase activity [11]: 94%
% residual kinase activity [12]: 96%
% residual kinase activity [13]: 105%
